Results on 6 compounds are retold here after US8822517B2, “Arylosulfonamides for the treatment of CNS diseases” (Adamed SP. Z O.O., priority 2010, dated 2014).

In test [1] the target is T1, serotonine transporter (SERT) receptor (Homo sapiens, UniProt P31645).
T1 construct: expressed in transfected cells; host or cells: CHO cells
Description: Binding assay SERT (h), [3H]imipramine, CHO cells. As to conditions: read-out: SERT [%]. The procedure, abridged: (§1)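 Compounds tested at a single 1×10^−6 M concentration against the listed radioligands; bound label counted by scintillation, with non-specific binding defined by excess unlabelled ligand and subtracted from total.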

In the next test the test system is sigma σ receptor. The experiment in a line: Binding assay σ (non-selective), [3H]DTG, rat cerebral cortex. The following applies: percent inhibition of control specific binding; compounds tested at 1×10^−6 M. An outline of the steps: as §1
The test system of another test is adrenergic α1 receptor. Description: Binding assay α1 (non-selective), [3H]prazosin, rat cerebral cortex. The following applies: percent inhibition of control specific binding; compounds tested at 1×10^−6 M. An outline of the steps: as §1
A further test deals with T2, muscarinic M3 receptor (Homo sapiens, UniProt P20309).
T2 construct: expressed in transfected cells; host or cells: CHO cells
The experiment in a line: Binding assay M3 (h), [3H]4-DAMP, CHO cells. As to conditions: read-out: M3 [%]. An outline of the steps: as §1

For test [2], the target named is T3, serotoninergic receptor 5-HT2C (Homo sapiens, UniProt P28335).
T3 construct: expressed in transfected cells; host or cells: HEK-293 cells
T3 sequence (P28335 33-458): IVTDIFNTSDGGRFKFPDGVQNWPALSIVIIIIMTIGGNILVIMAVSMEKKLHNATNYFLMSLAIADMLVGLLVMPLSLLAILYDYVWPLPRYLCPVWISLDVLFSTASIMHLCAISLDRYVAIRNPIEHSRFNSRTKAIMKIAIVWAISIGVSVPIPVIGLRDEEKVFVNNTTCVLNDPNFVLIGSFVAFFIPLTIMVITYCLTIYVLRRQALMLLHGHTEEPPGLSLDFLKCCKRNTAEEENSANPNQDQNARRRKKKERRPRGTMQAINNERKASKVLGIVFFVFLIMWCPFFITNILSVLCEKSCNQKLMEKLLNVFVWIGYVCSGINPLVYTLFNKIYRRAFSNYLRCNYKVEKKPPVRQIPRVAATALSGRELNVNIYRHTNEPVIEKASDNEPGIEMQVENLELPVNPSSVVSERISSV
Description: Binding assay 5-HT2C (h), [3H]mesulergine, HEK-293 cells. The following applies: read-out: 5-HT2C [%]. An outline of the steps: as §1

Test [3] concerns the target T4, serotoninergic 5-HT6 receptor (Homo sapiens, UniProt P50406). The experiment in a line: Cellular functional assay, serotoninergic 5-HT6 receptor (agonism/antagonism). In kind it is cell-based. The following applies: for activation at 1 µM: agonist effect, percent of control specific agonist response, compounds tested at 1×10^−6M, read-out: 5-HT6-ag [%]; for inhibition at 1 µM: read-out: 5-HT6-antag. [%]. As to the method:
(§2) The compounds were tested at the concentration of 1×10^−6M.
(§3) In the Tables ag refers to agonism, and antag to antagonism).

For test [4], the target named is T5, serotoninergic 5-HT7 receptor (Homo sapiens, UniProt P34969). The experiment in a line: Cellular functional assay, serotoninergic 5-HT7 receptor (agonism/antagonism). As to conditions: for activation at 1 µM: agonist effect, percent of control specific agonist response, compounds tested at 1×10^−6M, read-out: 5-HT7-ag [%]; for inhibition at 1 µM: read-out: 5-HT7-antag. [%]. The class given is cell-based. As to the method: as §2, §3

In the next test the target is dopaminergic D3 receptor (Homo sapiens, UniProt P35462). The experiment in a line: Binding assay D3 (h), [3H]methyl-spiperone, CHO cells. Also noted: expressed in transfected cells; host or cells: CHO cells. As to conditions: read-out: D3 [%]. An outline of the steps: as §1
Test [5] concerns the target T4, serotoninergic 5-HT6 receptor. Description: Binding assay 5-HT6 (h), [3H]LSD, CHO cells. Also noted: expressed in transfected cells; host or cells: CHO cells. The following applies: read-out: 5-HT6. The procedure, abridged:
as §1

The target of test [6] is T5, serotoninergic 5-HT7 receptor. Description: Binding assay 5-HT7 (h), [3H]LSD, CHO cells. Also on record: expressed in transfected cells; host or cells: CHO cells. As to conditions: read-out: 5-HT7. An outline of the steps: as §1
In another test the target is T6, adrenergic α2C receptor (Homo sapiens, UniProt P18825).
T6 sequence (P18825 1-462): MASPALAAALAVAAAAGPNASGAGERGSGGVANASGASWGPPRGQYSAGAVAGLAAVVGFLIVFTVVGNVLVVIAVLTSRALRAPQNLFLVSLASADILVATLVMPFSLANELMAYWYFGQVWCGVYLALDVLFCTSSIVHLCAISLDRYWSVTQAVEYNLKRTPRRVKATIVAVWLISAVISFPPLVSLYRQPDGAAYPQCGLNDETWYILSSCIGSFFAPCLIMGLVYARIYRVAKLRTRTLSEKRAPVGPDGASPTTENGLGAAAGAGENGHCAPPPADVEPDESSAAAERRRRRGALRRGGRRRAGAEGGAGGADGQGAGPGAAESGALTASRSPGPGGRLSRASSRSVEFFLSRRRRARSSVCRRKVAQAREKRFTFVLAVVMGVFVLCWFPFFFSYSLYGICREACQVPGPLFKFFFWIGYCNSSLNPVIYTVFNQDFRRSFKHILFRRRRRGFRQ
Description: Binding assay α2C (h), [3H]RX 821002, CHO cells. Also on record: expressed in transfected cells; host or cells: CHO cells. As to conditions: read-out: α2C [%]. The procedure, abridged:
as §1

In another test the target is dopaminergic D2 receptor (Homo sapiens, UniProt P14416). Description: Binding assay D2S (h), [3H]methyl-spiperone, HEK-293 cells. Also on record: expressed in transfected cells; host or cells: HEK-293 cells. As to conditions: read-out: D2 [%]. An outline of the steps:
as §1

Test [7] addresses T7, serotoninergic 5-HT1A receptor (Homo sapiens, UniProt P08908).
T7 sequence (P08908 1-422): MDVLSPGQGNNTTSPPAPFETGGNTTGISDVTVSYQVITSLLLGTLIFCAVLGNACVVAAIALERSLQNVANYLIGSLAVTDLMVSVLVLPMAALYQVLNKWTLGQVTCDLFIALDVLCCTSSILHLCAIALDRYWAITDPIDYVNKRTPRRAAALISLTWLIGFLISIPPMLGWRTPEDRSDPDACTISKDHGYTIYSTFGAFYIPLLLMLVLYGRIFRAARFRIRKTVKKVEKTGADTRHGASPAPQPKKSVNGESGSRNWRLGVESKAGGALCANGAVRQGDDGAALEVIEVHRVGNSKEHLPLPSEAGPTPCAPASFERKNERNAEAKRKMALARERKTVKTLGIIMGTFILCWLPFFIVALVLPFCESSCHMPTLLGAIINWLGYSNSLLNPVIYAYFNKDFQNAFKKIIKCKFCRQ
Description: Binding assay 5-HT1A (h), [3H]8-OH-DPAT, HEK-293 cells. Also on record: expressed in transfected cells; host or cells: HEK-293 cells. As to conditions: read-out: 5-HT1A. An outline of the steps:
as §1

Test [8] deals with serotoninergic 5-HT2A receptor (Homo sapiens, UniProt P28223). Description: Binding assay 5-HT2A (h), [3H]ketanserin, HEK-293 cells. The following applies: read-out: 5-HT2A. Also on record: expressed in transfected cells; host or cells: HEK-293 cells. The procedure, abridged: as §1
Test [9] deals with histaminergic H1 receptor (Homo sapiens, UniProt P35367). Description: Binding assay H1 (h), [3H]pyrilamine, HEK-293 cells. Also noted: expressed in transfected cells; host or cells: HEK-293 cells. As to conditions: read-out: H1 [%]. The procedure, abridged:
as §1

T1 sequence (P31645 whole entry): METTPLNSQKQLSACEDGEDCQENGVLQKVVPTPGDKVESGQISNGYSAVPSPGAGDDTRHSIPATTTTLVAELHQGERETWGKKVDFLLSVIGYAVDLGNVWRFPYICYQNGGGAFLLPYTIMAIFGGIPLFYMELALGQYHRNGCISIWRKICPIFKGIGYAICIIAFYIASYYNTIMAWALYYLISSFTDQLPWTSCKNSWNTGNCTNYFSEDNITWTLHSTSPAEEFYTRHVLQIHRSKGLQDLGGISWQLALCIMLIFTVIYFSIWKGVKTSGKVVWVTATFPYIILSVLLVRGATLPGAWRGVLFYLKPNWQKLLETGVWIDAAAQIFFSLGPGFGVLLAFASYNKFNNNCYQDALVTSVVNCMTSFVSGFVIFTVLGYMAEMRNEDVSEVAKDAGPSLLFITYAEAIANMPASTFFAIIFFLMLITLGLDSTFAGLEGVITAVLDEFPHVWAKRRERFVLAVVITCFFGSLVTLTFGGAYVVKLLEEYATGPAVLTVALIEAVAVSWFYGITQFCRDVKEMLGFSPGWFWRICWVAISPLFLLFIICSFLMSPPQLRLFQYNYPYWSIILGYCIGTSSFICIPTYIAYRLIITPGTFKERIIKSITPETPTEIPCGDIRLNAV
T4 sequence (P50406 whole entry): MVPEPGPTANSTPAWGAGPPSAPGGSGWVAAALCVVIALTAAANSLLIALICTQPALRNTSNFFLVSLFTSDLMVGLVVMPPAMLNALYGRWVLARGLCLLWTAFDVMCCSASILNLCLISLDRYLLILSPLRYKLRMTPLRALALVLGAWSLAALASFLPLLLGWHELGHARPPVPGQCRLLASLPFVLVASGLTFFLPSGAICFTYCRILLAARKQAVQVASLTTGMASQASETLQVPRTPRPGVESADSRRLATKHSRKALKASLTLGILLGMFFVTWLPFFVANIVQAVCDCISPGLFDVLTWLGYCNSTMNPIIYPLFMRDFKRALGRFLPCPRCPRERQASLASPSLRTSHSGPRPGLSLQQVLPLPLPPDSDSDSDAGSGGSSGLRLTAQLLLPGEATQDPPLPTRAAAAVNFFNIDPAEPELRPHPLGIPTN
histaminergic H1 receptor, sequence (P35367 whole entry): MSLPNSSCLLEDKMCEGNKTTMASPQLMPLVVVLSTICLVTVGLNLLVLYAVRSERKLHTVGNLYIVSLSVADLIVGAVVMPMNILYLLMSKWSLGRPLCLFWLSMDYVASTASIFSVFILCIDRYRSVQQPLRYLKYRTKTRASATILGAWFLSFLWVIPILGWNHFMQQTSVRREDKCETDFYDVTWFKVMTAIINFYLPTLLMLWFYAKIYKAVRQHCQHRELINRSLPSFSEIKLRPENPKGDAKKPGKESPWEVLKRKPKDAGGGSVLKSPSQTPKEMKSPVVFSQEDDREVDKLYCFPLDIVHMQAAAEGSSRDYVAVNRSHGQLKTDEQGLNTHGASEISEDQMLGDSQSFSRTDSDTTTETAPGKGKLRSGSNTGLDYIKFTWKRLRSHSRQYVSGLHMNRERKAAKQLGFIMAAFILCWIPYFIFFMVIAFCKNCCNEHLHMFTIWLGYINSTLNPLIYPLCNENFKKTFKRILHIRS
dopaminergic D2 receptor, sequence (P14416 1-414 isoform P14416-2): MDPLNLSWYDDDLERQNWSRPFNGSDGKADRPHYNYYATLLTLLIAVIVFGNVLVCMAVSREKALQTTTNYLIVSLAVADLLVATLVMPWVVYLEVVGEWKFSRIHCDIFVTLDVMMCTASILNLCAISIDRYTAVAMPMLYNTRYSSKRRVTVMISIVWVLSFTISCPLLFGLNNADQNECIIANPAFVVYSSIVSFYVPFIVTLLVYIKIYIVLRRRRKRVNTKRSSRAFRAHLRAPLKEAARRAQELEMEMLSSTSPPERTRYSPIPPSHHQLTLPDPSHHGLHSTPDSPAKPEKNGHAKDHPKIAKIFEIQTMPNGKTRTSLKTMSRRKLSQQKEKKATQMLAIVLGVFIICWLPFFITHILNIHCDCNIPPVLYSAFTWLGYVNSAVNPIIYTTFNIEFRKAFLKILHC
serotoninergic 5-HT2A receptor, sequence (P28223 whole entry): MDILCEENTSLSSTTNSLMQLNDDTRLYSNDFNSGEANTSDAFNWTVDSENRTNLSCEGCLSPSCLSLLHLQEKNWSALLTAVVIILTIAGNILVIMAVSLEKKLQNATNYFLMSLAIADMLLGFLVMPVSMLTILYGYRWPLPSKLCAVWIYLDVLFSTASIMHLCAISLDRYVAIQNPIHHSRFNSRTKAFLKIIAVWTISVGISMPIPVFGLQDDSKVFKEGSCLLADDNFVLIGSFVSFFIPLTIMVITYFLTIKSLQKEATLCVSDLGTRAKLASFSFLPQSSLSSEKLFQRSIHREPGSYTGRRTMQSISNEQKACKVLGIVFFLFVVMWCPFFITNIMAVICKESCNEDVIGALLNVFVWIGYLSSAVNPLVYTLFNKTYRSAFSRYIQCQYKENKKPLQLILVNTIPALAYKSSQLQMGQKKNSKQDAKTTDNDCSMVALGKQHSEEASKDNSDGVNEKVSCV
T2 sequence (P20309 whole entry): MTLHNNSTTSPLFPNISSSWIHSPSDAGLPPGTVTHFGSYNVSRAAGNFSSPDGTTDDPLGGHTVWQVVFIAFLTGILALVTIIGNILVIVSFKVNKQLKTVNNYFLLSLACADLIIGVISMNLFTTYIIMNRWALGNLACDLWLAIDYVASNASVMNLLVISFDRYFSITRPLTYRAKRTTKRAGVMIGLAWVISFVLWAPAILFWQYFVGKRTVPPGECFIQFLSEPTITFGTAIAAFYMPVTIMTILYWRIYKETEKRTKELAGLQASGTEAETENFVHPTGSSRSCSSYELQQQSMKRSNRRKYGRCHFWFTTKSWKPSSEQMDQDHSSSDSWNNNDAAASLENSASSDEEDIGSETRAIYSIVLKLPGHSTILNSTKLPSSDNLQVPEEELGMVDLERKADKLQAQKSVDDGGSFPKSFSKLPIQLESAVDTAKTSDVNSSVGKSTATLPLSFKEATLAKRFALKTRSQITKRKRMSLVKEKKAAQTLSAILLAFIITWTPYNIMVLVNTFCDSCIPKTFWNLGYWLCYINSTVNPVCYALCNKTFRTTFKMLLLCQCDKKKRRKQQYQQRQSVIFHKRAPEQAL
T5 sequence (P34969 whole entry): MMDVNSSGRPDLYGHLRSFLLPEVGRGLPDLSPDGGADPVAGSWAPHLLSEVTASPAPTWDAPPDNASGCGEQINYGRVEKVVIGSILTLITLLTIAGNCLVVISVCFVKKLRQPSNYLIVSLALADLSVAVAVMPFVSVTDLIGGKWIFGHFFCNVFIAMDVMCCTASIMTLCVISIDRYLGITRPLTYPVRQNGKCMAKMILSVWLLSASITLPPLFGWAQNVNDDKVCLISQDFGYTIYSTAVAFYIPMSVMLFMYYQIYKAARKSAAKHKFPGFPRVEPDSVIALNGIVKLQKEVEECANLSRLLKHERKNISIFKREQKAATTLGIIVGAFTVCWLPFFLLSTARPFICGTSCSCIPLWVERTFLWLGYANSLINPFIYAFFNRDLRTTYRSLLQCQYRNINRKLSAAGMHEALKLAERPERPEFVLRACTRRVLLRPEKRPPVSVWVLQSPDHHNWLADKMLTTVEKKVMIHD
dopaminergic D3 receptor, sequence (P35462 whole entry): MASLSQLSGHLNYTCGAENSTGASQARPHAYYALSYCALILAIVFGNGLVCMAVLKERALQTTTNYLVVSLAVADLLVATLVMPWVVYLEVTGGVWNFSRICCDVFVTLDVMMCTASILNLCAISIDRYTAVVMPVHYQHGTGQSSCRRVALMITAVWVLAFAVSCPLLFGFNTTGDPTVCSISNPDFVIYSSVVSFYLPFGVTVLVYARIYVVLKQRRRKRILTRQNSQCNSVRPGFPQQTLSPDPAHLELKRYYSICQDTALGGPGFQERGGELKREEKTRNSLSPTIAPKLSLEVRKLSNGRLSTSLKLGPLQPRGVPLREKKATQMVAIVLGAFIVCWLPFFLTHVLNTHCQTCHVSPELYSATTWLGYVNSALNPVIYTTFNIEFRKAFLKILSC

With `O=S(=O)(NCCCN1CCC(c2noc3cc(F)ccc23)CC1)c1cccc2ccccc12` [Compound 20, N-[3-[4-(6-Fluoro-1,2-benzoxazol-3-yl)piperidin-1-yl]propyl]naphthalene-1-sulphonamide], the inhibition at 1 µM in test [1] was 85%; on muscarinic M3 receptor, -9%; in test [2], 75%; in test [3] it was 23%; in [4] it was 101%; at dopaminergic D3 receptor, 96%. Further, the inhibition at 1 µM was 85% in test [5]; 101% in test [6]; 99% on adrenergic α2C receptor; 98% at dopaminergic D2 receptor; 71% in [7]; 100% in [8]. In addition, the inhibition at 1 µM in [9] is 78%. Also, the “σ [%]” value in the test on sigma σ receptor is listed as 81%. In addition, the “α1 [%]” value in the test with adrenergic α1 receptor is recorded as 99%. Also, the activation at 1 µM in [3] is -2%; in [4], -1%.

As for `O=S(=O)(NCCN1CCN(c2nsc3ccccc23)CC1)c1cccc2ccccc12` [Compound 9, N-(2-(4-(1,2-Benzothiazol-3-yl)piperazin-1-yl)ethyl)naphthalene-1-sulphonamide], the inhibition at 1 µM in test [1] is 29%; on muscarinic M3 receptor, -2%; in test [2] it was 24%; in [3], -4%; in test [4], 48%; on dopaminergic D3 receptor, 90%. Further, the inhibition at 1 µM in test [5] amounted to 22%; in [6], 98%; at adrenergic α2C receptor, 98%; on dopaminergic D2 receptor, 91%; in test [7], 98%; in test [8] it was 99%. The inhibition at 1 µM in [9] was found to be 77%. Moreover, the “σ [%]” value in the test on sigma σ receptor was determined as 23%. The “α1 [%]” value in the test on adrenergic α1 receptor amounted to 74%. In addition, the activation at 1 µM in test [3] and in test [4] was 0% each time.

For `O=S(=O)(NCCN1CCC(c2noc3cc(F)ccc23)CC1)c1cccc2ccccc12` [Compound 23, N-[2-[4-(6-Fluoro-1,2-benzoxazol-3-yl)piperidin-1-yl]ethyl]naphthalene-1-sulphonamide], the inhibition at 1 µM was 68% in test [1]; -2% on muscarinic M3 receptor; 44% in test [2]; 1% in test [3]; 88% in test [4]; 93% at dopaminergic D3 receptor. For the same compound, the inhibition at 1 µM in [5] stood at 69%; in [6], 96%; on adrenergic α2C receptor, 99%; at dopaminergic D2 receptor, 97%; in test [7] it was 85%; in test [8] it was 100%. Also, in test [9], the inhibition at 1 µM stood at 67%. The “σ [%]” value in the test with sigma σ receptor was 82%. In the test on adrenergic α1 receptor, the “α1 [%]” value is 97%. For the same compound, the activation at 1 µM in [3] and in test [4] was 0% each time.

In the case of `O=S(=O)(NCCCN1CCC(c2noc3cc(F)ccc23)CC1)c1ccc2ccccc2c1` [Compound 21, N-[3-[4-(6-Fluoro-1,2-benzoxazol-3-yl)piperidin-1-yl]propyl]naphthalene-2-sulphonamide], the inhibition at 1 µM in test [1] was 46%; on muscarinic M3 receptor it was 2%; in [2] it was 87%; in [3], 39%; in test [4] it was 98%; on dopaminergic D3 receptor, 97%. In addition, the inhibition at 1 µM was found to be 93% in test [5]; 99% in test [6]; 98% on adrenergic α2C receptor; 99% on dopaminergic D2 receptor; 77% in test [7]; 100% in [8]. For the same compound, in [9], the inhibition at 1 µM worked out at 90%. Moreover, in the test on sigma σ receptor, the “σ [%]” value is on record as 82%. Further, the “α1 [%]” value in the test with adrenergic α1 receptor came to 97%. In addition, the activation at 1 µM was -2% in test [3] and 0% in [4].

Turning to `Cc1cccc(S(=O)(=O)NCCN2CCN(c3nsc4ccccc34)CC2)c1` [Compound 11, N-(2-(4-(1,2-Benzothiazol-3-yl)piperazin-1-yl)ethyl)-3-methylbenzenesulphonamide], the inhibition at 1 µM in test [1] is 1%; at muscarinic M3 receptor it was -6%; in [2] it was 40%; in test [3], -10%; in test [4], 85%; at dopaminergic D3 receptor it was 91%. The inhibition at 1 µM in [5] was found to be 54%; in [6] it was 99%; at adrenergic α2C receptor, 94%; on dopaminergic D2 receptor, 89%; in test [7] it was 99%; in [8], 99%. Also, the inhibition at 1 µM in [9] was 74%. Further, in the test with sigma σ receptor, the “σ [%]” value is on record as 21%. Moreover, in the test with adrenergic α1 receptor, the “α1 [%]” value is 85%. Further, the activation at 1 µM in test [3] is -1%; in [4], 0%.

Consider `O=S(=O)(NCCCN1CCN(c2nsc3ccccc23)CC1)c1ccc2c(c1)OCO2` [Compound 269, N-[3-[4-(1,2-Benzothiazol-3-yl)piperazin-1-yl]propyl]-1,3-benzodioxole-5-sulphonamide], for which the inhibition at 1 µM in test [1] was determined as 96%; on muscarinic M3 receptor, 20%; in test [2] it was 92%; at dopaminergic D3 receptor, 100%; in test [5], 98%; in test [6], 101%. Besides, the inhibition at 1 µM is 101% at adrenergic α2C receptor; 99% at dopaminergic D2 receptor; 99% in test [7]; 101% in test [8]; 92% in test [9]. For the same compound, the “σ [%]” value in the test on sigma σ receptor is 49%. Besides, the “α1 [%]” value in the test with adrenergic α1 receptor is on record as 97%.
